Laboratory results published in patent US11957766B2, “HNQO1-activatable fluorescent probe for imaging cancer cells in-vitro and in-vivo” (Texas Tech University System, priority 2019, dated 2024).

Assays:
[1] = NIR-ASM tolerability and toxicity in vivo; design: species or system CD1 mice; conditions: 5 mg/kg five times a week for five weeks
Experimental: Assessment of NIR-ASM biocompatibility. Inspired by the excellent photophysical properties of NIR-ASM in monitoring the NQO1 activity in vitro, the inventors determined the biocompatibility of NIR-ASM both in vitro and in vivo before using for endogenous applications. […] Further, to evaluate NIR-ASM tolerability and toxicity in vivo, CD1 mice were grouped for the administration of vehicle (PEG:H2O:EtOH) alone or 5 mg/kg of NIR-ASM five times a week for five weeks. The average mouse weights were monitored as a surrogate marker to the toxicity.
Hematoxylin and eosin (H&E) staining. The hematoxylin and eosin staining were performed as described previously. Briefly, freshly dissected tissues were snap freeze and store at −20° C. for overnight. Frozen tissues were cut into […] slices, the sections were stained in Mayer's Hematoxylin and Eosin solution. Finally, the sections were dehydrated and mounted with Permount in a fume hood. The results were analyzed under a phase-contrast Olympus microscope (Olympus America Inc).

A549 tumor = assay: In vivo real-time imaging of NQO1 in A549 xenografts with NIR-ASM; design: species or system nude mice
Experimental: In vivo real-time imaging of NQO1 in xenografts using NIR-ASM. In vivo real-time imaging offers a powerful tool for accurately diagnosing disease and suspicious lesions with valuable spatiotemporal precision. […] Tumor xenografts were established by implanting exponentially growing lung cancer cells (A549) subcutaneously into nude mice. When tumor growth reached the log phase, NIR-ASM (5 mg/kg in PEG:H2O:EtOH (6:3:1)) was given intravenously and subjected to whole-body fluorescence imaging using an In Vivo Imager (IVIS). […] No signal was apparent in other organs of the animal. To confirm the tumor-selective targeting ability of NIR-ASM, the host organs and tumor from the mice administered with NIR-ASM were harvested and their fluorescence was analyzed ex vivo using the same IVIS. […] Furthermore, the lysates from the tumor and various organs were electrophoresed and western blotted using the NQO1 antibody. NQO1 protein at detectable levels was seen only in the tumor lysate and not in other tissues, thus, reinforcing the specificity of in-vivo imaging (FIG. 14C).
In vivo bioimaging. […] All animals were monitored for activity, physical condition, body weight, and tumor growth. […] Fluorescence represented in log values of radiance is photons per second per square centimeter per steradian.

NQO1 = NQO1 (Homo sapiens, UniProt P15559); assay: HPLC analysis of NQO1 catalyzed conversion of NIR-ASM; type: biochemical; design: purchased Sigma-Aldrich D1515; conditions: after 30 min of incubation
NQO1, sequence (P15559 whole entry): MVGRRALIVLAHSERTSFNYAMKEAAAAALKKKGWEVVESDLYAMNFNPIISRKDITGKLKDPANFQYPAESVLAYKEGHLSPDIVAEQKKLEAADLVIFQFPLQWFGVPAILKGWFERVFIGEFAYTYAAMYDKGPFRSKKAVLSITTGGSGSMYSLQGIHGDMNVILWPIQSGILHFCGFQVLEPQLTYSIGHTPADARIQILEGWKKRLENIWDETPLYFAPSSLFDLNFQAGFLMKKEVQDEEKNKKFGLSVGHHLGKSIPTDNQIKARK
From the text: Design, preparation, and characterization of the NIR-ASM fluorescent probe. Imaging agents emitting near-infrared fluorescence enable deeper penetration with low phototoxicity and high signal-to-background ratios due to minimal tissue auto-fluorescence, which is a prime requirement for in vivo imaging studies.^40,41 Accordingly, the inventors designed an NQO1 activatable near-infrared fluorescent probe (NIR-ASM) by attaching a trimethyl-lock QPA with (E)-2-(3-(4-aminostyryl)-5,5-dimethylcyclohex-2-en-1-ylidene)malononitrile (ASM) for molecular imaging of cancer cells in vivo (FIG. 9A). The fluorophore ASM was used in this study because of its strong NIR fluorescence signal with substantial Stokes shift (˜190 nm), to eliminate background interferences by avoiding reabsorption of emitted photons. […] NQO1 is a ubiquitous cytosolic two-electron reductase that catalyzes the reduction of quinone substrates in the presence of NADH. Upon interaction with NQO1 in the presence of NADH, QPA present in non-fluorescent NIR-ASM undergoes two-electron reduction to form an o-hydroxydihydrocinnamic acid derivative that undergoes rapid lactonization under physiological conditions to yield dihydrocoumarin, 6-hydroxy-4,4,5,7,8-pentamethylchroman-2-one (HPC) along with highly fluorescent ASM. […]

[2] = tested on: Lewis Lung carcinoma (LLC) tumors; assay: In vivo and ex vivo NIRF imaging with NIR-ASM in Lewis Lung carcinoma (LLC) lung cancer model; design: species or system C57BL/6 mice
From the text: Whether still in-situ or already disseminated, early diagnosis of cancer is an essential requirement for successful therapy. Although NQO1 is expressed at higher levels in cancers compared to a diminished or absent status in normal tissues, the diagnostic potential of existing NQO1 specific fluorescent probes has not been realized. Therefore, the inventors evaluated the non-invasive diagnostic ability of NIR-ASM in a metastatic syngeneic lung cancer model to mimic the clinical situation. Lung cancer was established in C57BL/6 mice by injecting Lewis Lung carcinoma (LLC) cells (0.5×10^6 per animal) intravenously. This cell line is highly tumorigenic and is primarily used to model metastasis as well as evaluate the efficacy of chemotherapeutic agents in vivo.^44 The LLC cells have ˜80 units of NQO1 activity compared to <10 units in healthy mouse lungs.^45 Two weeks after the implantation, the animals received NIR-ASM (5 mg/kg) intravenously. […] There are several routes for drug elimination from the body and the majority of drugs are eliminated by pathways that involve the kidneys.
In vivo bioimaging. The animal study protocol was approved by the Institutional Animal Use and Care Committee (IACUC), Texas Tech University Health Sciences Center, Protocol number: 07050. All experimental protocols used in this study were approved by IACUC, Texas Tech University Health Sciences Center and all the methods were carried out according to the committee guidelines. Female athymic nude mice (nu/nu, 4-6 weeks) were purchased from Charles River Laboratories (Wilmington, MA, USA). BALB/c57 mice were provided by Dr. Constantinos Mikelis of our University. To establish A549 or MDA-MB-231 xenografts, a total of 5×10^6 cells (in 0.1 ml of serum-free media and Matrigel (1:1)) were subcutaneously injected into the flanks of the mice. For developing orthotopic lung cancer models, LLC cells (0.5×10^6) were intravenously injected into the tail veins of female BALB/c57 mice. All animals were monitored for activity, physical condition, body weight, and tumor growth. To detect endogenous NQO1 activity, NIR-ASM was dissolved in a vehicle of composition, PEG-300:EtOH:saline (60:30:10, v/v/v) and given intravenously through tail vein injection. The animals were imaged at different time intervals with excitation/emission filters of 500/640 nm using the IVIS Lumina XR Imaging system. At the end of the experiments, the xenografted tumors, hearts, lungs, livers, kidneys, spleens, and brains were removed and imaged to confirm the signal locations. Fluorescence represented in log values of radiance is photons per second per square centimeter per steradian.

CC1=C(C)C(=O)C(C(C)(C)CC(=O)Nc2ccc(/C=C/C3=CC(=C(C#N)C#N)CC(C)(C)C3)cc2)=C(C)C1=O [NIR-ASM, (E)-N-(4-(2-(3-(dicyanomethylene)-5,5-dimethylcyclohex-1-en-1-yl)vinyl)phenyl)-3-methyl-3-(2,4,5-trimethyl-3,6-dioxocyclohexa-1,4-dien-1-yl)butanamide]
histological features (brain, heart, lung, liver, spleen, kidney; H&E) ([1]; versus control): no significant differences
average body weights ([1]; versus vehicle): no remarkable changes
time at which tumor fluorescence signal reached the plateau (A549 tumor; 5 mg/kg intravenously): 30 min
ex vivo fluorescence in tumor and organs (A549 tumor; organs harvested after NIR-ASM): observed only in the tumor and not in any other major organs
conversion into ASM by NQO1 (HPLC) (NQO1): nearly completely converted into ASM
time of maximum fluorescence intensity ([2]; 5 mg/kg intravenous): 30 min
NIRF signal intensity of tumor-bearing lungs compared to other selected organs ([2]; 5 mg/kg intravenously, two weeks after implantation): more than 100 fold
route of elimination ([2]; fluorescence observed in kidneys during ex vivo NIRF imaging): renal excretion might play an important role
fluorescence in the lungs of healthy mice ([2]; non-tumor-bearing mouse, intravenous NIR-ASM): no fluorescence observed
